Measured values taken from patent US7776873B2, “Method for treating damage to gastric mucosa” (Yuhan Corporation, priority 2005, dated 2010).

Columns and labels:
[1] = tested on: indomethacin-induced gastric mucosal lesions; test: Preventive effect on in vivo indomethacin-induced gastric injury; design: species or system Sprague-Dawley male rats; settings: rats, 10 mg/kg via oro-gastric tube prior to indomethacin 40 mg/kg for 12 hrs, FIG. 3A
Text: (§1) Six-week old specific-pathogen-free (SPF) Sprague-Dawley male rats (Charles River, Tokyo, Japan) were used for experiments. The rats were fed a sterilized commercial pellet diet (Biogenomics Co., Seoul, Korea), given sterile water ad libitum, and housed in air-conditioned biohazard room with a 12-h light:12-h dark cycle. The rats were divided into four groups; indomethacin-only treatment group, revaprazan-indomethacin treatment group, ethanol-only treatment group and revaprazan-ethanol treatment group. The rats were food-deprived 24 hours, and then administered with 10 mg/kg revaprazan suspended in 0.5% CMC (carboxymethylcellulose) via oro-gastric tube prior to exposure to either indomethacin (40 mg/kg for 12 hrs) or absolute ethanol (6 ml/kg for 1 hr). The stomachs of the rats belonging to the groups treated with indomethacin were excised and the degree of gastric mucosal lesions was observed (see FIG. 3A). Referring to FIG. 3A, in the indomethacin-only treatment group, increased hemorrhagic lesions in gastric mucosa were observed visually. […] Also, the stomachs of the rats belonging to the ethanol treatment groups were excised and the degree of gastric mucosal lesions was observed (see FIG. 3B).

[2] = tested on: ethanol-induced gastric mucosal lesions; test: Preventive effect on in vivo ethanol-induced gastric injury; design: species or system Sprague-Dawley male rats; settings: rats, 10 mg/kg via oro-gastric tube prior to absolute ethanol 6 ml/kg for 1 hr, FIG. 3B
Text: as §1

COX-2 (cyclooxygenase-2) = test: Expression level of COX-2 in sulindac-treated cells (RT-PCR); assay type: cell-based, rat; settings: RGM-1 cells, revaprazan 25 uM (rebamipide 50 uM) 16 hours, then sulindac 100 uM 8 hours, FIG. 6
Method: In order to evaluate cytoprotective effect of revaprazan, 100 μM of sulindac belonging to NSAIDs was added to the rat cells, and the expression levels of pro-angiogenic growth factors, VEGF (Vascular Endothelial Growth Factor), interleukin-8 (IL-8), and COX-2 (cyclooxygenase-2) were measured. Rebamipide (50 μM), known to have cytoprotective properties, was used as a control drug and revaprazan (25 μM) was used as a test drug. The rat gastric mucosal (RGM-1, RIKEN cell bank, Japan) cells were seeded in culture dishes at 2×10^6 cells/100 mm^2 and cultured in RPMI 1640 (Gibco BRL, Grand Island, N.Y., U.S.A.), supplemented with 100 units/mL penicillin, 100 ug/mL streptomycin, and 10% FBS (Fetal Bovine Serum). […] The culture media were removed and the cells were washed three times with PBS (137 mM NaCl, 2.7 mM KCl, 10 mM Na2HPO4, and 2 mM KH2PO4). A solution of sulindac in DMSO was added to the cells to reach a final concentration of 100 uM and the cells were cultured at 37° C. for 8 hours. The cultured cells were collected by centrifugation at 23° C. at 3000 rpm for 3 minutes, and the total RNA was isolated from the cells using the TRIzol reagent (Life technologies, Milan, Italy). Sterilized RNase-free water was added to 2 μg of the total RNA and 1 μl of 10 pmol/λ oligo dT to obtain reaction solutions with a volume of 34 μl. […]

[3] = tested on: indomethacin-induced gastric mucosal lesions; test: Preventive effect on NSAID-induced gastropathy; assay type: in vivo, Sprague Dawley male rats; settings: rats, oro-gastric pretreatment (revaprazan 5, 10 mg/kg; rebamipide 30 mg/kg; omeprazole 5 mg/kg) prior to indomethacin 40 mg/kg for 12 hrs, FIG. 8
Method: Six-week old specific-pathogen-free (SPF) Sprague Dawley male rats (Charles River, Tokyo, Japan) were used for experiments. The rats were fed a sterilized commercial pellet diet (Biogenomics Co., Seoul, Korea), given sterile water ad libitum, and housed in air-conditioned biohazard room with a 12-h light:12-h dark cycle. The rats were food-deprived 24 hours, and then administered with 5, 10 mg/kg revaprazan, 30 mg/kg rebamipide and 5 mg/kg omeprazole suspended in 0.5% CMC (carboxymethylcellulose) via oro-gastric tube prior to exposure to indomethacin (40 mg/kg for 12 hrs). Phosphate-buffered saline was perfused into the gastric lumen of the rats to swell the stomachs. Then, the stomachs were opened by an incision along the greater curvature, and the total area of the gastric mucosal lesions was calculated to obtain the average size of the lesions.

[4] = tested on: indomethacin-induced gastric mucosal lesions; test: Treatment effect on NSAID-induced gastropathy; assay type: in vivo, Sprague Dawley male rats; settings: rats, 5 mg/kg and 10 mg/kg given 8 hours after indomethacin 40 mg/kg, for one hour, FIG. 9
Method: Six-week old specific-pathogen-free (SPF) Sprague Dawley male rats (Charles River, Tokyo, Japan) were used for experiments. The rats were fed a sterilized commercial pellet diet (Biogenomics Co., Seoul, Korea), given sterile water ad libitum, and housed in air-conditioned biohazard room with a 12-h light:12-h dark cycle. The rats were food-deprived 24 hours, and then treated with 1 ml of a solution of indomethacin (40 mg/kg) in 0.5% CMC (carboxymethylcellulose) via oro-gastric tube. 8 hours after the indomethacin treatment, the rats were treated with 1 ml of a solution of revaprazan (5 mg/kg and 10 mg/kg) in 0.5% CMC for one hour, and the degree of gastropathy was determined in the same manner as in Example 8.

`Cc1nc(Nc2ccc(F)cc2)nc(N2CCc3ccccc3C2C)c1C` (stereo not drawn) [revaprazan, 5,6-dimethyl-2-(4-fluorophenylamino)-4-(1-methyl-1,2,3,4-tetrahydroisoquinolin-2-yl)pyrimidine] was tested, and the indomethacin-induced gastric injury [1] was “completely inhibited”, the ethanol-induced gastric injury [2] was “completely inhibited” and the “expression level of COX-2 versus rebamipide-sulindac treatment group” value (COX-2 (cyclooxygenase-2)) was “much higher”. The “hemorrhagic gastric mucosal lesions after pretreatment” value [3] was “little hemorrhagic lesions are observed”, the “gastric mucosal hemorrhagic lesions after treatment” value [4] was “remarkably improved” and the “number of erosions and ulcers” value [4] was “reduced”.
